# Assay results: US6099845A, “Process for the preparation of Rhus verniciflua extract and anti-cancer composition containing same” (Forest Genetics Research Institute, priority 1997, dated 2000)
# “Also recorded” adds a separate entry of the source.
# Tests used:
# [1] = system: formation of peroxidized lipids; details: cited from earlier work
# [2] = system: blood vessel and capillary; details: cited from earlier work
# [3] = system: allergy and dermatopathies; details: cited from earlier work
# [4] = DPPH free radical decolorization (anti-oxidative activity); format: biochemical; details: 0.04% ethanol solution, 30 min, room temperature, 517 nm
# Experimental: DPPH(1,1-diphenyl-2-picrylhydrazyl) is a free radical which is very stable in an organic solution. […] Accordingly, it is advantageously employed in measuring anti-oxidative activity of a material.
# DPPH was dissolved in absolute ethanol to a concentration of […]("DPPH ethanol solution"). To this solution, the extract of R. verniciflua obtained in Example 1 and Sesamol (Sigma, U.S.A.), a natural anti-oxidant were added to a concentration of 0.04%, respectively to obtain an "extract ethanol solution" and a "Sesamol ethanol solution".
# 2 ml of the DPPH ethanol solution was put into each of two 4 me disposable spectrophotometer cuvettes(Muller ratiolab, Germany). Then, 2 ml of the extract ethanol solution was placed in one cuvette and 2 ml of the Sesamol ethanol solution was put into the other cuvette. The mixtures were reacted at room temperature for 30 min. As a control, a cuvette containing 4 ml of the DPPH ethanol solution was used. The absorption of each cuvette was determined at 517 nm with a spectrophotometer(HP 8453 diode array spectrophotometer). The absorption of the extract ethanol solution was calibrated with the absorption of the control, and the capability of the extract ethanol solution to decolorize the purple color of the DPPH ethanol solution was calculated based on the calibrated absorption of the Sesamol ethanol solution.
# cancer = details: cited from earlier work
# angiogenesis = details: cited from earlier work
# F9 teratocarcinoma cells = details: cited from earlier work
# LamB1 gene = format: cell-based, mouse; details: F9 cells, 7 days; FIG. 8
# cancer cells = details: cited from earlier work
structure (smiles),measurement,setting,value
"O=c1c(O)c(-c2ccc(O)c(O)c2)oc2cc(O)ccc12 (single isomer, unassigned) [Fisetin, 3,3',4',7-tetrahydroxyflavone]",suppressing the formation of peroxidized lipids,[1],suppressing the formation of peroxidized lipids
same,protecting blood vessel and capillary,[2],protecting blood vessel and capillary
same,inhibiting allergy and dermatopathies,[3],inhibiting allergy and dermatopathies
"O=C1c2ccc(O)cc2OC(c2ccc(O)c(O)c2)C1O (single isomer, unassigned) [fustin, 3,3',4',7-tetrahydroxyflavanone]",suppressing the formation of peroxidized lipids,[1],suppressing the formation of peroxidized lipids
same,protecting blood vessel and capillary,[2],protecting blood vessel and capillary
same,inhibiting allergy and dermatopathies,[3],inhibiting allergy and dermatopathies
Oc1ccc2c(c1)OCO2 [Sesamol],anti-oxidative activity relative to Sesamol's 100,[4],100
CC1(C)CC[C@]2(C(=O)O)CC[C@]3(C)C(=CC[C@@H]4[C@@]5(C)CC[C@H](O)C(C)(C)[C@@H]5CC[C@]43C)[C@@H]2C1 [oleanolic acid],anti-cancer activity (in words),cancer,have anti-cancer activity
same,inhibitory activity on angiogenesis (in words),angiogenesis,some inhibitory activity on angiogenesis
same,differentiation of F9 teratocarcinoma cells (in words),F9 teratocarcinoma cells,capable of differentiating F9 teratocarcinoma cells into normal cells; also recorded: induce the differentiation of F9 teratocarcinoma cells by regulating the gene involved in the differentiation
CC1=C(/C=C/C(C)=C/C=C/C(C)=C/C(=O)O)C(C)(C)CCC1 [retinoic acid],expression of LamB1 gene (northern blotting),LamB1 gene,converts the gene of the cancer cell to express LamBl gene
same,inhibitory activity on angiogenesis (in words),angiogenesis,inhibit angiogenesis
same,differentiation of cancer cells (in words),cancer cells,induce the differentiation of cancer cells to normal cells
same,differentiation of F9 teratocarcinoma cells (in words),F9 teratocarcinoma cells,transforms into a primitive developmental form
CC1CCC2(C(=O)O)CCC3(C)C(=CCC4C5(C)CCC(O)C(C)(C)C5CCC43C)C2C1C (stereo not shown) [urusolic acid],anti-cancer activity (in words),cancer,have anti-cancer activity
same,inhibitory activity on angiogenesis (in words),angiogenesis,some inhibitory activity on angiogenesis
same,differentiation of F9 teratocarcinoma cells (in words),F9 teratocarcinoma cells,capable of differentiating F9 teratocarcinoma cells into normal cells; also recorded: induce the differentiation of F9 teratocarcinoma cells by regulating the gene involved in the differentiation
C=C1CCC(O)CC1=CC=C1CCCC2(C)C1CCC2C(C)CCCC(C)C (stereo not shown) [vitamin D3],inhibitory activity on angiogenesis (in words),angiogenesis,inhibit angiogenesis
same,differentiation of cancer cells (in words),cancer cells,induce the differentiation of cancer cells to normal cells
